In patent publication US12534457B2, “Heteroaryl derivative compounds, and uses thereof” (Voronoi Inc., priority 2021, dated 2026):

Tests used:
[1] = target: T1, EGFR (L718Q) (Homo sapiens, UniProt P00533, L718Q); assay: EGFR-family mutant enzyme activity (Reaction Biology); format: biochemical
T1 construct: purchased Reaction Biology

[2] = target: T2, EGFR (G719D) (Homo sapiens, UniProt P00533, G719D); assay: as above; format: biochemical
T2 construct: purchased Reaction Biology

[3] = target: T3, EGFR (d746-750) (Homo sapiens, UniProt P00533, DEL746-750); assay: as above; format: biochemical
T3 construct: purchased Reaction Biology

[4] = test system: Ba/F3 cells expressing EGFR Del19/C797S (EGFR DC); assay: Proliferation inhibitory activity, Ba/F3 cells expressing EGFR Del19/C797S (CellTiter-Glo); format: cell-based; conditions: Mus musculus, BaF3, 72 hours of compound treatment
Summary of the method: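 Viability after 72 h of compound exposure was measured by luminescence (CellTiter-Glo) in Ba/F3 lines transduced with mutant EGFR. Final concentrations spanned 0.2 nM–5 μM over 12 threefold steps. Growth relative to untreated control gave GI50 values; each test was run three times.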

[5] = test system: Ba/F3 G724S (EGFR mutation); assay: Proliferation inhibitory activity, Ba/F3 cells expressing EGFR G724S; format: cell-based; conditions: Mus musculus, BaF3, 72 hours, CellTiter-Glo
Procedure: (§1) The following experiments were performed to evaluate the inhibitory activity of the compounds according to the present disclosure on Ba/F3 proliferation expressing EGFR C797S, L861Q, G719A, S768I, L718Q, and/or G724S mutations.
(§2) For Ba/F3 cells, RPMI-1640 containing 10% FBS and 5 ng/ml IL-3 (R&D Systems) was used. Transduced Ba/F3 cells were cultured after adding 1 μg/ml puromycin (Invitrogen) to the same medium.
(§3) At 24 hours before treatment with the compounds, 3000 to 5000 cells were aliquoted into each well of a white clear bottom 96 well plate (Corning). The compounds were diluted in dimethyl sulfoxide (3 times dilution, 12 concentrations in total), and injected in an amount of 1 μl so that the final concentration was 0.2 nM to 5 uM. For measurement of living cells, after 72 hours of compound treatment, the cells were stored at room temperature for 10 min using CellTiter-Glo luminescentcell-viability reagent (Promega), and then luminescence intensity was measured using a reader (SynergyNeo, Biotek). Each test was repeated three times. Result values were calculated as the cell growth rate (%) compared to the control. The graphs were created using GraphPad Prism version 8.3.0 program and the GI50 values were calculated.

[6] = target: T4, EGFR (G719C) (Homo sapiens, UniProt P00533, G719C); assay: EGFR-family mutant enzyme activity (Reaction Biology); format: biochemical
T4 construct: purchased Reaction Biology

[7] = target: T5, EGFR (d746-750/T790M/C797S) (Homo sapiens, UniProt P00533, C797S/DEL746-750/T790M); assay: as above; format: biochemical
T5 construct: purchased Reaction Biology

[8] = target: T6, EGFR (L792F/L858R) (Homo sapiens, UniProt P00533, L792F/L858R); assay: as above; format: biochemical
T6 construct: purchased Reaction Biology

[9] = target: T7, EGFR (d746-750/C797A) (Homo sapiens, UniProt P00533, C797A/DEL746-750); assay: as above; format: biochemical
T7 construct: purchased Reaction Biology

[10] = target: T8, EGFR (d746-750/C797S) (Homo sapiens, UniProt P00533, C797S/DEL746-750); assay: as above; format: biochemical
T8 construct: purchased Reaction Biology

[11] = target: T9, EGFR (L861Q) (Homo sapiens, UniProt P00533, L861Q); assay: as above; format: biochemical
T9 construct: purchased Reaction Biology

[12] = test system: Ba/F3 G719A (EGFR mutation); assay: Proliferation inhibitory activity, Ba/F3 cells expressing EGFR G719A; format: cell-based; conditions: Mus musculus, BaF3, 72 hours, CellTiter-Glo
Procedure: as §1, §2, §3

[13] = test system: Ba/F3 L861Q (EGFR mutation); assay: Proliferation inhibitory activity, Ba/F3 cells expressing EGFR L861Q; format: cell-based; conditions: Mus musculus, BaF3, 72 hours, CellTiter-Glo
Procedure: as §1, §2, §3

[14] = target: T10, EGFR (G719S) (Homo sapiens, UniProt P00533, G719S); assay: EGFR-family mutant enzyme activity (Reaction Biology); format: biochemical
T10 construct: purchased Reaction Biology

[15] = target: T11, EGFR (L792F) (Homo sapiens, UniProt P00533, L792F); assay: as above; format: biochemical
T11 construct: purchased Reaction Biology

[16] = target: T12, EGFR (D761Y) (Homo sapiens, UniProt P00533, D761Y); assay: as above; format: biochemical
T12 construct: purchased Reaction Biology

[17] = test system: Ba/F3 L718Q (EGFR mutation); assay: Proliferation inhibitory activity, Ba/F3 cells expressing EGFR L718Q; format: cell-based; conditions: Mus musculus, BaF3, 72 hours, CellTiter-Glo
Procedure: as §1, §2, §3

[18] = target: T13, ERBB4/HER4 (Homo sapiens, UniProt Q15303); assay: EGFR-family mutant enzyme activity (Reaction Biology); format: biochemical
T13 construct: purchased Reaction Biology

[19] = target: T14, ERBB2/HER2 (Homo sapiens, UniProt P04626); assay: as above; format: biochemical
T14 construct: purchased Reaction Biology

[20] = test system: Ba/F3 S768I (EGFR mutation); assay: Proliferation inhibitory activity, Ba/F3 cells expressing EGFR S768I; format: cell-based; conditions: Mus musculus, BaF3, 72 hours, CellTiter-Glo
Procedure: as §1, §2, §3

[21] = target: T15, EGFR (L747S) (Homo sapiens, UniProt P00533, L747S); assay: EGFR-family mutant enzyme activity (Reaction Biology); format: biochemical
T15 construct: purchased Reaction Biology

T3 sequence (P00533 with tags, fused parts or gaps DEL746-750 limits assumed): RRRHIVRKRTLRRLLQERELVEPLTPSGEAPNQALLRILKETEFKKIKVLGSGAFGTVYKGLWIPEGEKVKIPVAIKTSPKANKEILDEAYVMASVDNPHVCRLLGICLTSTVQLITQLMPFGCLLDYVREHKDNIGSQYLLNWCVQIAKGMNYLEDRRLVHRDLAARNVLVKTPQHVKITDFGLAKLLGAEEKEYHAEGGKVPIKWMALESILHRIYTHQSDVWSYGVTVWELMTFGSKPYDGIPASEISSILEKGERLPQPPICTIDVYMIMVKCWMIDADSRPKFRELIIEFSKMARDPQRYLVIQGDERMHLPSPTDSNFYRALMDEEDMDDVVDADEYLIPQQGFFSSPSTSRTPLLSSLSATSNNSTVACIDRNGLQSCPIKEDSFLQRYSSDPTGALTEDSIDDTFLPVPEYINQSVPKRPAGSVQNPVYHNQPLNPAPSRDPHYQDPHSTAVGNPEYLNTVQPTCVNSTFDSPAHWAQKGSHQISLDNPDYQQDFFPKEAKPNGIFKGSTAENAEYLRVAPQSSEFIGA
T14 sequence (P04626 23-1255): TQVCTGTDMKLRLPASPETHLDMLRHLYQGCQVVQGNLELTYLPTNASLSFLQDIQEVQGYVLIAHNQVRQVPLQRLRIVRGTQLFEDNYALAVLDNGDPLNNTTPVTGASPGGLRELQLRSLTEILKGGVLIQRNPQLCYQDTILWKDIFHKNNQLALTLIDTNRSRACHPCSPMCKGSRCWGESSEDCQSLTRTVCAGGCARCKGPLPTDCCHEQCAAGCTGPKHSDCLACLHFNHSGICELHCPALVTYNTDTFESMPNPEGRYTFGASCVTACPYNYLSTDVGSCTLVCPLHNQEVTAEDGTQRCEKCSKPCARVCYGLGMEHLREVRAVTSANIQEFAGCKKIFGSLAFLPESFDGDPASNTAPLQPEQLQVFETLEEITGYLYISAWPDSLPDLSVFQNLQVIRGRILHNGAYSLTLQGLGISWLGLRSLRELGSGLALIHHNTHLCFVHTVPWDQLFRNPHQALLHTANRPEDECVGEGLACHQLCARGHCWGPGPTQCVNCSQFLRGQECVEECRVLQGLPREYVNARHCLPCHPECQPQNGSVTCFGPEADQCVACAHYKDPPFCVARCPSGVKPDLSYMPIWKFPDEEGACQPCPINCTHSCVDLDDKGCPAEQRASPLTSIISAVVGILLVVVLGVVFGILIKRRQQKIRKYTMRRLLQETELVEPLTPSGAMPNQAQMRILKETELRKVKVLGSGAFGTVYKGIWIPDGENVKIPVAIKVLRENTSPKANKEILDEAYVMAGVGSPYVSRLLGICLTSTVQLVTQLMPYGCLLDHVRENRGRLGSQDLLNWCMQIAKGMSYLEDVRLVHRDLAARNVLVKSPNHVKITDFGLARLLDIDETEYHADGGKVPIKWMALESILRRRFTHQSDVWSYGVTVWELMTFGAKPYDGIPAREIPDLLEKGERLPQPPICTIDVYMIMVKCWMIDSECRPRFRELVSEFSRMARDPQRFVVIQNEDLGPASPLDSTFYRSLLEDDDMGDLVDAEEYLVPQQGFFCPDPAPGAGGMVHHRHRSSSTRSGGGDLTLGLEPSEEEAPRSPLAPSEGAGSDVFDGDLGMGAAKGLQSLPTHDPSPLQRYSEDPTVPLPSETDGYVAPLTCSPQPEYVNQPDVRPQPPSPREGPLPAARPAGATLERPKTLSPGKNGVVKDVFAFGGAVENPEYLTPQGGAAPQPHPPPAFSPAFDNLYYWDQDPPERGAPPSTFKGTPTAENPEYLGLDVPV
T12 sequence (P00533 25-1210 D761Y): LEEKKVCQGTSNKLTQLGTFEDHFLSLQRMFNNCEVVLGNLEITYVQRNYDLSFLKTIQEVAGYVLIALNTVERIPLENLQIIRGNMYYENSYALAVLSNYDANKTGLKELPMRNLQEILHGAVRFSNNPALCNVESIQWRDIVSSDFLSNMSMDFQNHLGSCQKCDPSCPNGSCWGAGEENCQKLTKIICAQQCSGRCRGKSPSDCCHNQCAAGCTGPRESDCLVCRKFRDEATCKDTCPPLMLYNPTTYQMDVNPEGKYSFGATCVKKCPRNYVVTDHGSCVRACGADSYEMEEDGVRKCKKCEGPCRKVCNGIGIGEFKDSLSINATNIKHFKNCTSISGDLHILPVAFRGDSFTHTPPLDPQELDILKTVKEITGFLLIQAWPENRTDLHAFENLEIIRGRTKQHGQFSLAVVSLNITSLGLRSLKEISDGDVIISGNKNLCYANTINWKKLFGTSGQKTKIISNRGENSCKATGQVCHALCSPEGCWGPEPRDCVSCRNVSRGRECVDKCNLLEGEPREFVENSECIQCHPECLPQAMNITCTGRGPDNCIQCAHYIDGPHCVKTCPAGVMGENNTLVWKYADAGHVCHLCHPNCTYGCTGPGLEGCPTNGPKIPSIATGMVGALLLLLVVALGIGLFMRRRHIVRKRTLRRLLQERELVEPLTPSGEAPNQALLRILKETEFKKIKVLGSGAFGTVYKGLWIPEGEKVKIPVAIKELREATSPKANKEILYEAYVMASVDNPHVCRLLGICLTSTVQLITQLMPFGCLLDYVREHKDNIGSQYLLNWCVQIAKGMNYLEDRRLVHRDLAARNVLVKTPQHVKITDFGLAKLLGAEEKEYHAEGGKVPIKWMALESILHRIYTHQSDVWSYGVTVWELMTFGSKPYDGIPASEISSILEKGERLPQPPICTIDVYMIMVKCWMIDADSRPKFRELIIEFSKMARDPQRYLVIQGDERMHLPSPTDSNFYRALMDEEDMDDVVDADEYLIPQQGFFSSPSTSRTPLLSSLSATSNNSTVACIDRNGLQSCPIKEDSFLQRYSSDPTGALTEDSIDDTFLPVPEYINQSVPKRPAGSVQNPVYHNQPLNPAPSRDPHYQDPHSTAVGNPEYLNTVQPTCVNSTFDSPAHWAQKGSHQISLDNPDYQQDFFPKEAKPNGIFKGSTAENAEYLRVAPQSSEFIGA
T1 sequence (P00533 25-1210 L718Q): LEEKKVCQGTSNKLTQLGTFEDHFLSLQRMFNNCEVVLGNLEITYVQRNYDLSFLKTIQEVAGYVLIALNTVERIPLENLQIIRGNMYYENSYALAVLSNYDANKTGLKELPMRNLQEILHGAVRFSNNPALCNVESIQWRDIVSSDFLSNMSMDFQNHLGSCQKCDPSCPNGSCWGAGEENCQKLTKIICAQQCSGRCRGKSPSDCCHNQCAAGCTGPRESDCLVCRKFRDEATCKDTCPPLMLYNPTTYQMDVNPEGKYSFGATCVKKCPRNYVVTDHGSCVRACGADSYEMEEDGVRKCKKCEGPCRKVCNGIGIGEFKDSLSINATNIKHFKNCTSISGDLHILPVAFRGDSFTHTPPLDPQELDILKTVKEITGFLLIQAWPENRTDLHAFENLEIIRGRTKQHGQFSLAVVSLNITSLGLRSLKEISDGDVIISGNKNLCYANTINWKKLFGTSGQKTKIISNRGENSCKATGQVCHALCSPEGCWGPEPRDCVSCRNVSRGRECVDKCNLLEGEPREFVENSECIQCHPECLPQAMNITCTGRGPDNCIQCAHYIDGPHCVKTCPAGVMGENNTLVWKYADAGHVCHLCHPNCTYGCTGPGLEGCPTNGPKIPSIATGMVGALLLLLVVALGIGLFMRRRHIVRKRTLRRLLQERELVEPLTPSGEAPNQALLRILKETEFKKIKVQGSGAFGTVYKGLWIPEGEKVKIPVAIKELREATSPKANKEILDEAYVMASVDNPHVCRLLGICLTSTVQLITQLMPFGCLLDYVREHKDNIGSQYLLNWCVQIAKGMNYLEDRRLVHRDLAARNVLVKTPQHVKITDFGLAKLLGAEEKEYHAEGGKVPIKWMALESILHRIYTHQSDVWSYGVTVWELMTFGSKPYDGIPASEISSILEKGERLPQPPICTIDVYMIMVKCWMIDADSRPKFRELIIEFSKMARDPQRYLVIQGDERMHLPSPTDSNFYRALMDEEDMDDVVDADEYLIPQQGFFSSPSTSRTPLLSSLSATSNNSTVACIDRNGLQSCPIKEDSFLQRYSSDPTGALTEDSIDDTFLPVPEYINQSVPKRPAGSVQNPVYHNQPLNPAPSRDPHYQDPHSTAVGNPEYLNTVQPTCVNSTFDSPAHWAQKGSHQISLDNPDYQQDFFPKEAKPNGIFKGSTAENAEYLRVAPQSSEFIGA
T8 sequence (P00533 with tags, fused parts or gaps DEL746-750/C797S limits assumed): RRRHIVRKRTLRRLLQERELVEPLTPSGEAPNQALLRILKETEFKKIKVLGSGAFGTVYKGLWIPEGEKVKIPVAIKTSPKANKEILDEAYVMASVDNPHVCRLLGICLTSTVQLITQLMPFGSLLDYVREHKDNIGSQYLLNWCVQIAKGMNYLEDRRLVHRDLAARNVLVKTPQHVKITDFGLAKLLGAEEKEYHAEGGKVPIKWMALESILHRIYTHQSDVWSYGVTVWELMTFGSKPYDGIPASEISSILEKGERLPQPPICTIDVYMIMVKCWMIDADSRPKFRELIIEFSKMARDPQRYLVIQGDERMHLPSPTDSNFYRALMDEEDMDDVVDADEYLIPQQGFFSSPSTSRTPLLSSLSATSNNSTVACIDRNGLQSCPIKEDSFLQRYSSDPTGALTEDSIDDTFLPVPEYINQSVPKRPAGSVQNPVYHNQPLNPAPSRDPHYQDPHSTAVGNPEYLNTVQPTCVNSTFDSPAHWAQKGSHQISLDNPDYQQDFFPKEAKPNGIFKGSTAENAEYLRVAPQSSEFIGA

COc1cc(N2CCC(N3CCN(C)CC3)CC2)ccc1Nc1cc(N2OCC[C@@H]2c2ccc(F)cc2F)ncn1 [Example 34, (R)-6-(3-(2,4-difluorophenyl)isoxazolidin-2-yl)-N-(2-methoxy-4-(4-(4-methylpiperazin-1-yl)piperidin-1-yl)phenyl)pyrimidin-4-amine]
IC50 [1]: 0.0498 µM
IC50 [2]: < 0.0005 µM
IC50 [3]: 0.008 µM
GI50 [4]: < 0.05 µM
GI50 [5]: < 0.05 µM
IC50 [6]: 0.0005 µM
IC50 [7]: 0.0605 µM
IC50 [8]: 0.0781 µM
IC50 [9]: 0.0035 µM
IC50 [10]: < 0.0005 µM
IC50 [11]: < 0.0005 µM
GI50 [12]: < 0.05 µM
GI50 [13]: 0.05 to 0.5 µM
IC50 [14]: 0.0027 µM
IC50 [15]: 0.0087 µM
IC50 [16]: < 0.0005 µM
GI50 [17]: 0.05 to 0.5 µM
IC50 [18]: 0.0417 µM
IC50 [19]: 0.0053 µM
GI50 [20]: 0.05 to 0.5 µM
IC50 [21]: < 0.0005 µM
